Reference: patent US20090062401A1, “DECALINE-DERIVED COMPOUNDS AS […] ACTIVE AGENTS” (UNIVERSITAT DORTMUND, priority 2004, published 2009)
Where two headings read alike, the source gives them in different places.

Legend:
[1] = target: T1, PTP1B (Homo sapiens, UniProt P18031); experiment: PTP1B phosphatase inhibition, general phosphatase assay using para-nitrophenylphosphate; format: biochemical; settings: read-out: IC50 Target PTP1B
T1 sequence (P18031 1-435): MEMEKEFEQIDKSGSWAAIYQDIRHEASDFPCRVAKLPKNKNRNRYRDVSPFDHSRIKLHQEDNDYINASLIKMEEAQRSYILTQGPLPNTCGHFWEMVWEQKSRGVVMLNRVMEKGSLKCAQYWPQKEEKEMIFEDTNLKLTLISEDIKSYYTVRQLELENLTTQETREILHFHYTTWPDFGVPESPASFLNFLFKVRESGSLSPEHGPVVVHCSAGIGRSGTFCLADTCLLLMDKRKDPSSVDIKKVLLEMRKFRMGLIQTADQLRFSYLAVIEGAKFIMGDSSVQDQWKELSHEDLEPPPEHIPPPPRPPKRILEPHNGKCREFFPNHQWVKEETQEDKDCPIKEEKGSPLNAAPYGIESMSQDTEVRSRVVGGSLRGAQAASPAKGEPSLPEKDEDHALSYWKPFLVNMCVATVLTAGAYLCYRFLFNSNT
From the text: (§1) Assays protocols for the other enzymes mentioned herein (MtPTPA, PP1, VHR, PTP1B) are disclosed in Schweizer R A S, Atanasov, G A, Frey B M, and Odermatt A, Mol. Cell. Endocrinol. 2003, 212, 41-49 and Barratte, B., Meijer L., Galaktionov K. & Beach D, Anticancer Res. 1992, 12, 873-880. For determination of the phosphatase activity, a general phosphatase assay using para-nitrophenylphosphate was applied.

[2] = target: VHR (Homo sapiens, UniProt P51452); experiment: VHR phosphatase inhibition, general phosphatase assay using para-nitrophenylphosphate; format: biochemical; settings: read-out: IC50 Target VHR
From the text: as §1

[3] = target: T2, Cdc25A (Homo sapiens, UniProt P30304); experiment: Cdc25A phosphatase inhibition; format: biochemical
T2 sequence (P30304 1-524): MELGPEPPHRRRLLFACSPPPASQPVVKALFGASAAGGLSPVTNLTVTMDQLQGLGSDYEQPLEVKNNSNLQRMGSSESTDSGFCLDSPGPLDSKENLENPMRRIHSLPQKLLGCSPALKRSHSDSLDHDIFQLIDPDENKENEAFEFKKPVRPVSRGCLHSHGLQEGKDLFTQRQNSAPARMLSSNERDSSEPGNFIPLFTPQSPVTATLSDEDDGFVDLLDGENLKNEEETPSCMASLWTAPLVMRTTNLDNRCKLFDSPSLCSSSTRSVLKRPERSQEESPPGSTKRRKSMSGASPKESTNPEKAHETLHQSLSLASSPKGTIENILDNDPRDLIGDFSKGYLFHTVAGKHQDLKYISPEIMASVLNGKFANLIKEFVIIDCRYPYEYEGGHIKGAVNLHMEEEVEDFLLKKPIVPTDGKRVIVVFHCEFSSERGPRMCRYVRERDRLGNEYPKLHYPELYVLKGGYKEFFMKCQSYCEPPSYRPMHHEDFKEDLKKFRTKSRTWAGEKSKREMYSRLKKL
From the text: (§2) Assay protocols for Cdc25A, 11βHSD1, 11βHSD2, and AChE are described in detain in the publication of Koch M A, Wittenberg L O, Basu S, Jeyaraj D A, Gourzoulidou E, Reinecke K, Odermatt A, Waldmann H (Proc. Natl. Acad. Sci. U.S.A. 2004 Nov. 30; 101(48):16721-6) and in Koch M A et al., Proc. Natl. Acad. Sci. U.S.A. 2005 Nov. 29; 102 (48):17272-7.

[4] = target: 11beta-HSD1 (Homo sapiens, UniProt P28845); experiment: biochemical; settings: read-out: IC50 Target 11beta-HSD1
From the text: as §2

Sequence of VHR (P51452 whole entry, species assumed): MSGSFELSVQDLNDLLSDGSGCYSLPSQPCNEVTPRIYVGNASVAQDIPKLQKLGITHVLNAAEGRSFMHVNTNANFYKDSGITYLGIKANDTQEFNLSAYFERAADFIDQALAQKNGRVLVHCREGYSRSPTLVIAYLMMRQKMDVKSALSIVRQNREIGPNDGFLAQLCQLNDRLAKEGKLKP
Sequence of 11beta-HSD1 (P28845 whole entry): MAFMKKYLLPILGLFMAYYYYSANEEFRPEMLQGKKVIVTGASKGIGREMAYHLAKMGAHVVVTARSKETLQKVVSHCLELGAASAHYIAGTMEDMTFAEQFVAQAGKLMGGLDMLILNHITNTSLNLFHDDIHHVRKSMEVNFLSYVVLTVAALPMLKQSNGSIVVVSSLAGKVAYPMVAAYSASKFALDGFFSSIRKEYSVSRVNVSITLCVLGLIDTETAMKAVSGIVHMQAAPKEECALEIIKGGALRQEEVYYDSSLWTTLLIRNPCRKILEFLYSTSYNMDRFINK

| Compound | IC50 [1] [µM] | IC50 [2] [µM] | IC50 ([3]; read-out: IC50 Target Cdc25A) [µM] | IC50 [4] [µM] | IC50 [3] [µM] |
| --- | --- | --- | --- | --- | --- |
| CC1=C2CCC[C@H](O)[C@@]2(C)C/C(=C\c2ccoc2)C1=O [Compound 8, (3E,4aS,5S)-3-[(Furan-3-yl)methylen]-4,4a,5,6,7,8-hexahydro-5-hydroxy-1,4a-dimethylnaphthalen-2(3H)-one] | 10 to 50 | < 10 | 10 to 50 | – | – |
| CC1=C2CCC[C@H](O)[C@@]2(C)C/C(=C\c2cccnc2)C1=O [Compound 10, (3E,4aS,5S)-4,4a,5,6,7,8-Hexahydro-5-hydroxy-1,4a-dimethyl-3-[(pyridin-3-yl)methylen]naphthalen-2(3H)-one] | – | – | – | < 10 | – |
| CSc1ccc(/C=C2\C[C@@]3(C)C(=C(C)C2=O)CCC[C@@H]3O)cc1 [Compound 11, (3E,4aS,5S)-3-[4-(Methylthio)benzyliden]-4,4a,5,6,7,8-hexahydro-5-hydroxy-1,4a-dimethylnaphthalen-2(3H)-one] | – | – | – | < 10 | – |
| COc1ccc(/C=C2\C[C@@]3(C)C(=C(C)C2=O)CCC[C@@H]3O)c(O)c1 [Compound 14, (3E,4aS,5S)-3-(2-Hydroxy-4-methoxybenzyliden)-4,4a,5,6,7,8-hexahydro-5-hydroxy-1,4a-dimethylnaphthalen-2(3H)-one] | – | – | – | < 10 | – |
| CCCCCCCCCCC/C=C1\C[C@@]2(C)C(=C(C)C1=O)CCC[C@@H]2O [Compound 22, (3E,4aS,5S)-3-Dodecyliden-4,4a,5,6,7,8-hexahydro-5-hydroxy-1,4a-dimethylnaphthalen-2(3H)-one] | – | – | – | < 10 | – |
| CCc1ccc(/C=C2\C[C@@]3(C)C(=C(C)C2=O)CCC[C@@H]3O)c(C)c1 [Compound 23, (3E,4aS,5S)-3-(4-Ethyl-2-methylbenzyliden)-4,4a,5,6,7,8-hexahydro-5-hydroxy-1,4a-dimethylnaphthalen-2(3H)-one] | – | – | – | < 10 | – |
| CC1=C2CCC[C@H](O)[C@@]2(C)C/C(=C\c2ccc(C#CC(C)OC(C)(C)C)cc2)C1=O (stereo partly drawn) [Compound 38, (3E,4aS,5S)-3-[4-(3-tert-Butoxybut-1-inyl)benzyliden]-4,4a,5,6,7,8-hexahydro-5-hydroxy-1,4a-dimethylnaphthalen-2(3H)-one] | 10 to 50 | 10 to 50 | < 10 | – | – |
| CCCCC#Cc1ccc(/C=C2\C[C@@]3(C)C(=C(C)C2=O)CCC[C@@H]3O)cc1 [Compound 40, (3E,4aS,5S)-3-[4-(Hex-1-inyl)benzyliden]-4,4a,5,6,7,8-hexahydro-5-hydroxy-1,4a-dimethyl-naphthalen-2(3H)-one] | 10 to 50 | 10 to 50 | 10 to 50 | – | – |
| CC1=C2CCC[C@H](O)[C@@]2(C)C/C(=C\c2ccc(C#CC(C)(C)O)cc2)C1=O [Compound 44, (3E,4aS,5S)-3-[4-(3-Hydroxy-3-methylbut-1-inyl)benzyliden]-4,4a,5,6,7,8-hexahydro-5-hydroxy-1,4a-dimethyl-naphthalen-2(3H)-one] | 10 to 50 | 10 to 50 | 10 to 50 | – | – |
| CCOC(C#Cc1ccc(/C=C2\C[C@@]3(C)C(=C(C)C2=O)CCC[C@@H]3O)cc1)OCC [Compound 46, (3E,4aS,5S)-3-[4-(3,3-Diethoxyprop-1-inyl)benzyliden]-4,4a,5,6,7,8-hexahydro-5-hydroxy-1,4a-dimethylnaphthalen-2(3H)-on] | 10 to 50 | 10 to 50 | < 10 | – | – |
| CC1=C2CCC[C@H](O)[C@@]2(C)C/C(=C\c2ccc(C#CCN(C)C)cc2)C1=O [Compound 51, (3E,4aS,5S)-3-{4-[3-(Dimethylamino)prop-1-inyl]benzyliden}-4,4a,5,6,7,8-hexahydro-5-hydroxy-1,4a-dimethylnaphthalen-2(3H)-one] | 10 to 50 | 10 to 50 | < 10 | – | – |
| CC1=C2CCC[C@H](O)[C@@]2(C)C/C(=C\C=C\c2ccco2)C1=O [Compound 60, (3E,4aS,5S)-3-[(E)-3-(Furan-2-yl)allyliden]-4,4a,5,6,7,8-hexahydro-5-hydroxy-1,4a-dimethylnaphthalen-2(3H)-one] | 10 to 50 | 10 to 50 | 10 to 50 | – | – |
| CC1=C2CCC[C@H](O)[C@@]2(C)C/C(=C\c2ccc(Br)cc2)C1=O [Compound 65, (3E,4aS,5S)-3-(4-Brombenzyliden)-4,4a,5,6,7,8-hexahydro-5-hydroxy-1,4a-dimethylnaphthalen-2(3H)-one] | – | – | – | 10 to 50 | – |
| CC1=C2CCC[C@H](O)[C@@]2(C)C/C(=C\c2ccc(C#CC3CCCCC3)cc2)C1=O [Compound 73, (3E,4aS,5S)-3-[4-(2-Cyclohexyl-ethinyl)benzyliden]-4,4a,5,6,7,8-hexahydro-5-hydroxy-1,4a-dimethylnaphthalen-2(3H)-one] | – | – | – | < 10 | – |
| C=C1C(C)=C2CCC[C@H](O)[C@@]2(C)C/C1=C\c1ccccc1 [Compound 97, (1S,7E,8aS)-7-Benzyliden-1,2,3,4,6,7,8,8a-octahydro-5,8a-dimethyl-6-methylennaphthalen-1-ol] | – | – | – | < 10 | – |
| C=C1C(C)=C2CCC[C@H](O)[C@@]2(C)C/C1=C\CCCC [Compound 98, (1S,7E,8aS)-1,2,3,4,6,7,8,8a-Octahydro-5,8a-dimethyl-6-methylen-7-pentylidennaphthalen-1-ol] | – | – | – | < 10 | – |
| C[C@]12C/C(=C\c3ccc(C#C[Si](C)(C)C)cc3)C(=O)C=C1CCC[C@@H]2O [Compound 137, (3E,4aS,5S)-3-{4-[2-(Trimethylsilyl)ethinyl]benzyliden}-4,4a,5,6,7,8-hexahydro-5-hydroxy-4a-methylnaphthalen-2(3H)-one] | – | 10 to 50 | – | – | < 10 |
| C[C@]12C/C(=C\c3ccc(C#CC4(O)CCCCC4)cc3)C(=O)C=C1CCC[C@@H]2O [Compound 138, (3E,4aS,5S)-3-{4-[2-(1-Hydroxycyclohexyl)ethinyl]benzyliden}-4,4a,5,6,7,8-hexahydro-5-hydroxy-4a-methylnaphthalen-2(3H)-one] | – | 10 to 50 | < 10 | – | – |
| COCC#Cc1cccc(/C=C2\C[C@@]3(C)C(CCC[C@@H]3O)C(C)C2NC2CCCCC2)c1 (stereo partly drawn) [Compound 346, (E,1S,8aS)-7-[3-(3-Methoxyprop-1-inyl)benzyliden]-6-(cyclohexylamino)-decahydro-5,8a-dimethylnaphthalen-1-ol] | – | – | 10 to 50 | – | – |
| C=CC[C@]12C(CCC[C@@H]1O)C(C)C(=O)/C(=C/c1cccc(C#CCOC)c1)[C@@H]2C (stereo partly drawn) [Compound 349, (E,4R,4aR,5S)-3-[3-(3-Methoxyprop-1-inyl)benzyliden]-4a-allyl-octahydro-5-hydroxy-1,4-dimethylnaphthalen-2(1H)-one] | – | – | 10 to 50 | – | – |
| CC1C=CCC2CCC(=Cc3ccco3)C(=O)C12 (centres unmarked) [Compound 394, 2-Furan-2-ylmethylene-8-methyl-3,4,4a,5,8,8a-hexahydro-2H-naphthalen-1-one] | < 10 | 10 to 50 | 10 to 50 | – | – |
| CC1(Cc2cccc(I)c2)C(=O)CC[C@@]2(C)C1CCC[C@@H]2O (stereo partly drawn) [Compound 398, (4aS,5S)-5-Hydroxy-1-(3-iodo-benzyl)-1,4a-dimethyl-octahydro-naphthalen-2-one] | 10 to 50 | 10 to 50 | 10 to 50 | – | – |
| CC1=C2CCCC(=O)[C@@]2(C)CC/C1=C1/C=CC(=O)O1 [Compound 401, (2E,4aS)-5-(1,4a-Dimethyl-5-oxo-4,4a,5,6,7,8-hexahydro-3H-naphthalen-2-ylidene)-5H-furan-2-one] | – | 10 to 50 | 10 to 50 | – | – |
| CCCCC1(C)C(=O)CC[C@@]2(C)C1CCC[C@@H]2O (stereo partly drawn) [Compound 414, (4aS,5S)-1-Butyl-5-hydroxy-1,4a-dimethyl-1-octahydro-naphthalen-2-one] | 10 to 50 | – | 10 to 50 | – | – |
| CC1=C2CCCC3(OCCO3)C2(C)CC/C1=C1/C=CC(=O)O1 (centres unmarked) [Compound 415, (5E)-5-(5′,8a′-dimethyl-3′,4′,8′,8a′-tetrahydro-2′H-spiro[1,3-dioxolane-2,1′-naphthalen]-6′(7′H)-ylidene)furan-2(5H)-one] | – | – | 10 to 50 | – | – |
